Measured values reported in patent US20080279843A1, “Method For Improving Insulin Sensitivity By Administering an Inhibitor of Antitrypsin” (Essential SkinCare, LLC, priority 2003, published 2008).
“Also recorded” adds a separate entry of the source.

Legend:
AT = AT (Homo sapiens, UniProt P01009); assay: Prevention of the inhibitory effect of AT on insulin-stimulated glycogen synthesis in differentiated L6 cells (Example 7); format: cell-based; details: FIG. 5
Method: (§1) Rat L6 skeletal muscle cells were obtained from the American Type Culture Collection, Rockville, Md. L6 cell monolayers were induced to differentiate in Minimal Essential Medium (MEM) containing 2% (v/v) fetal bovine serum (FBS) and 1% (v/v) antibiotic/antimycotic solution. The cells were fed fresh medium every 48 hours. Myoblast differentiation, which occurred by about the 7-9th day, was monitored by phase contrast microscopy. Differentiated L6 cells are widely used models for studying glucose metabolism in the skeletal muscle. The present study was focused on these cells, because skeletal muscle accounts for about 70-80% of total blood glucose metabolism in the human body.
To examine cellular glucose uptake and metabolism, differentiated (attached) cells in 12-well plates were incubated at 37° C. in a CO2 incubator (95% air: 5% CO2) with D-[^14C]glucose (1 μCi/mL) in 2% FBS-containing medium containing 5.5 mM unlabeled glucose for 0.5-6 hours as indicated at the corresponding Figures. […] Cells were washed twice with 3 ml medium to remove traces of medium containing unincorporated radioactivity. […]
Aliquots of the upper and lower phases were taken to scintillation vials to determine the amounts of radiolabeled glucose and total lipids, respectively, by liquid scintillation counting. […] No additional radioactivity could be removed from the well by neutralized 30% KOH. […]

AT activity = AT activity (Homo sapiens, UniProt P01009); details: daily oral administration of GF at the 600 mg level; Janciauskiene and Eriksson 1994; cited from earlier work
humans = details: 600-1200 mg GF once daily, oral, in humans; literature studies; cited from earlier work
[1] = test system: differentiated rat L6 muscle cells; assay: Synthesis of [14C]glycogen from radiolabeled glucose; format: cell-based; details: 500 nM insulin
Method: as §1
(§2) To examine cellular glucose uptake and metabolism, differentiated (attached) cells in 12-well plates were incubated at 37° C. in a CO2 incubator (95% air: 5% CO2) with D-[^14C]glucose (1 μCi/mL) in 2% FBS-containing medium containing 5.5 mM unlabeled glucose for 0.5-6 hours as indicated at the corresponding Figures. At the termination of incubation, the medium was removed. An aliquot of the medium was taken to determine the loss of [^14C]glucose from the medium which corresponds to its uptake by cells. Cells were washed twice with 3 ml medium to remove traces of medium containing unincorporated radioactivity. Ice-cold 99.8% methanol/0.2% water (v/v) mixture (1 ml) was then added to the monolayers and cells were extracted for 2 hours at −20° C. […] The methanol phase (1 ml) and a following 1 ml methanol wash were added to 2 ml chloroform followed by the addition of 3 ml water. Of the resulting two phases (separation was facilitated by brief centrifugation), the lower phase contained the total radiolabeled lipids, while the upper phase contained [^14C]glucose.
(§3) Aliquots of the upper and lower phases were taken to scintillation vials to determine the amounts of radiolabeled glucose and total lipids, respectively, by liquid scintillation counting. Precipitated [^14C]glycogen was suspended in 0.75 ml of 1 M NaOH and transferred to scintillation vial. This procedure was repeated with another 0.75 ml aliquot of NaOH. To neutralize the suspension, […] (approximately 150 μL) was then added to the vials, followed by the addition of 8.5 ml Ecolume (scintillation fluid). While the 1 M NaOH suspension contained some particulate material (mostly protein which was not labeled with radiolabeled glucose), no precipitate remained in the suspension after addition of Ecolume. […] No additional radioactivity could be removed from the well by neutralized 30% KOH.
In some experiments, a published procedure [Huang, D., Cheung, A. T., Parsons, J. T. and Bryer-Ash, M. “Focal adhesion kinase (FAK) regulates insulin-stimulated glycogen synthesis in hepatocytes.” J. Biol. Chem. 277, 18151-18160, (2002)] was used to determine glucose incorporation into glycogen in a method similar to the one described above. After incubations with [^14C] glucose, cells were solubilized with 20% KOH for 2 hours. Lysates were extracted with 8% […], neutralized with 2.0 M HCl, then boiled for 5 min. The total glycogen was precipitated by the addition of 80% ethanol (final concentration) for 2 hours at −20° C. followed by centrifugation at 1100×g for 10 min. This step was repeated.
After the pellets had been re-dissolved in distilled water, the samples were precipitated again using the same method described above, and yielded essentially the same results. In subsequent experiments the initial methanol precipitation method described above was used because it allowed for analysis of cellular glucose, glycogen and lipids from the same sample.
Three groups of differentiated L6 cells, incubated in 12-well plates in 2% FBS-containing medium, were treated as follows. A first control group ([…]) was untreated. A second group (▴) was treated with 500 nM insulin for 30 min. A third group (▪) was treated first with 0.4 mg/ml of AT followed by an addition of 500 nM insulin for 30 min. […]

[2] = test system: differentiated rat L6 muscle cells; assay: Cellular uptake of D-[14C]glucose; format: cell-based; details: FIG. 3A; 500 nM insulin; incubations for 2-6 hours
Method: as §1, §2, §3
Three groups of differentiated L6 cells, incubated in 12-well plates in 2% FBS-containing medium, were treated as follows. A first control group ([…]) was untreated. A second group (▴) was treated with 500 nM insulin for 30 min. A third group (▪) was treated first with 0.4 mg/ml of AT followed by an addition of 500 nM insulin for 30 min. Following the addition of D-[^14C]glucose, each group was incubated in the continuous presence of insulin and AT, as described above, for 0.5-6 hours.
Four groups of differentiated L6 cells, incubated in 12-well plates in 2% FBS-containing medium, were treated as follows. A first control group was untreated. A second group was treated with 500 nM insulin for 30 min. A third group was treated with 0.05 to 0.4 mg/ml of AT for 10 min. Finally, a fourth group was treated with 0.05 to 0.4 mg/ml of AT for 10 min followed by the addition of 500 nM insulin for 30 min. […]

C57/Black female mice [3] = assay: Glucose tolerance test with insulin and purified AT (Example 3); format: in vivo; details: for Glucose level: mice fasted 16 h, glucose 3 g/kg i.p., insulin 0.5 I.U. 15 min before glucose, purified AT 1200 μg i.p. 24 h before glucose, mean ± S.D., n=5
Method: C57/Black female mice weighing 23-25 g were fasted for 16 hours. Five animals were used for each of the three treatment groups. The first treatment group received intraperitoneal injections of 1200 μg purified AT, i.e. AT purified by the procedure of Example 1. Exactly 23 hours and 45 minutes after the AT was administered to the first treatment group, the animals in the first and second treatment group received 0.5 I.U. of insulin. Exactly 15 minutes after the insulin was administered (i.e., 24 hours after AT was administered to the first treatment group), glucose (3 g/kg) was injected intraperitoneally into the first, second and third treatment group. Blood samples were immediately measured with the fast Glucose C test (Wako Chemicals Inc. Richmond, Va., USA). The data presented are the mean ±S.D. of five determinations, one with each animal.

C57/Black female mice [4] = assay: Glucose tolerance test with insulin and commercial AT (Example 2); format: in vivo; details: FIG. 2; fasting (16 h) mice; insulin 0.5 I.U. 15 min before glucose 3 g/kg i.p.
Method: C57/Black female mice weighing 22-23 g were fasted for 16 hours. Four animals were used for each of four treatment groups. The first and fourth treatment group received intraperitoneal injections of 1500 μg commercially obtained AT. Exactly 23 hours and 45 minutes after the AT was administered to the first and fourth treatment group, the animals in the first and second treatment group received 0.5 I.U. of insulin. Exactly 15 minutes after the insulin was administered (i.e., 24 hours after the AT was administered to the first treatment group), glucose (3 g/kg) was injected intraperitoneally into the first, second and third treatment groups. Blood samples were taken from the eyes (canthus), and glucose concentrations in whole blood samples were immediately measured with the fast Glucose C test (Wako Chemicals USA Inc., Richmond, Va., USA). The data presented are the mean ±S.D. of four determinations, one with each animal.

Sequence of AT (P01009 25-418): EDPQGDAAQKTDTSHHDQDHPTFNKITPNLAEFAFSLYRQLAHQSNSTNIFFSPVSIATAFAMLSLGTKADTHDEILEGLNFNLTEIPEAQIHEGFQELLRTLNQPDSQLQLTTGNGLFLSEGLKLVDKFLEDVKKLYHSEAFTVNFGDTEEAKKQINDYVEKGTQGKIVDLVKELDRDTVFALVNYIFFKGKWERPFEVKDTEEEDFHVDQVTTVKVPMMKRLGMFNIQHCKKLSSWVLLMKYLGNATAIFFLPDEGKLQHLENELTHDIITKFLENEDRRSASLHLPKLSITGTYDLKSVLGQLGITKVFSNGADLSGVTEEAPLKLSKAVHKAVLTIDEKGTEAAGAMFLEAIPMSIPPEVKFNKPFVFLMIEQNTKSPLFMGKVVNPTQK
Sequence of AT activity (P01009 25-418): as above

Compound | Effect of GF or LCA on the inhibitory effect of AT on insulin-stimulated glycogen synthesis (AT; 25 mM GF or 50 μM LCA added 60 min prior to AT (0.4 mg/ml), 500 nM insulin, 5 hours) | Effect of GF or LCA on glycogen synthesis in the absence of AT (AT; 25 mM GF or 50 μM LCA, without AT) | Inhibition of AT activity (AT activity) | Side effects (humans) | Stimulatory effect of insulin on synthesis of [14C]glycogen compared to untreated cells ([1]; FIG. 3B, incubations for 2-6 hours) | Stimulation of synthesis of [14C]glycogen by insulin ([1]; FIG. 5, 5 hours) | Stimulatory effect of insulin on uptake of D-[14C]glucose compared to untreated cells [2] | Glucose level (C57/Black female mice [3]; 0 min) [mM] | Glucose level (C57/Black female mice [3]; 30 min) | Glucose level (C57/Black female mice [3]; 60 min) [mM] | Glucose level (C57/Black female mice [3]; 180 min) [mM] | Glucose level (C57/Black female mice [3]; 360 min) [mM] | Effect of insulin on the rise in blood glucose level after glucose (C57/Black female mice [3]; insulin 0.5 I.U. 15 min before glucose 3 g/kg i.p.) | Effect of insulin on the rise in blood glucose level after glucose (C57/Black female mice [4])
Cc1ccc(C)c(OCCCC(C)(C)C(=O)O)c1 [GF, gemfibrozil] | AT had no such inhibitory effect; also recorded: capable of preventing the strong inhibitory effect of AT | Neither GF nor LCA had a significant effect | 30-60% | In none of these studies did GF exert any significant side effects | – | – | – | – | – | – | – | – | – | –
insulin [reference compound] | – | – | – | – | approximately doubled; also recorded: more than two-fold stimulatory effects | about two-fold | approximately doubled; also recorded: more than two-fold stimulatory effects | 1.7 ± 0.2 | N.D.* (N.D means not detectable (below 1 mM)) | 2.5 ± 0.2 | 3.0 ± 0.3 | 3.3 ± 0.3 | initially strongly inhibited the rise in blood glucose level | initially strongly inhibited the rise in blood glucose level
